For 72 molecules, EC50 results are on record in PubChem BioAssay AID435023 (Broad Institute, 2010).

Each structure is given as a SMILES string. The source made the active and inactive calls. How the calls were made is not given here.

Chain of Protein LANA1 (Human herpesvirus 8 type P (isolate GK18)) (Q9QR71 whole entry, looked up): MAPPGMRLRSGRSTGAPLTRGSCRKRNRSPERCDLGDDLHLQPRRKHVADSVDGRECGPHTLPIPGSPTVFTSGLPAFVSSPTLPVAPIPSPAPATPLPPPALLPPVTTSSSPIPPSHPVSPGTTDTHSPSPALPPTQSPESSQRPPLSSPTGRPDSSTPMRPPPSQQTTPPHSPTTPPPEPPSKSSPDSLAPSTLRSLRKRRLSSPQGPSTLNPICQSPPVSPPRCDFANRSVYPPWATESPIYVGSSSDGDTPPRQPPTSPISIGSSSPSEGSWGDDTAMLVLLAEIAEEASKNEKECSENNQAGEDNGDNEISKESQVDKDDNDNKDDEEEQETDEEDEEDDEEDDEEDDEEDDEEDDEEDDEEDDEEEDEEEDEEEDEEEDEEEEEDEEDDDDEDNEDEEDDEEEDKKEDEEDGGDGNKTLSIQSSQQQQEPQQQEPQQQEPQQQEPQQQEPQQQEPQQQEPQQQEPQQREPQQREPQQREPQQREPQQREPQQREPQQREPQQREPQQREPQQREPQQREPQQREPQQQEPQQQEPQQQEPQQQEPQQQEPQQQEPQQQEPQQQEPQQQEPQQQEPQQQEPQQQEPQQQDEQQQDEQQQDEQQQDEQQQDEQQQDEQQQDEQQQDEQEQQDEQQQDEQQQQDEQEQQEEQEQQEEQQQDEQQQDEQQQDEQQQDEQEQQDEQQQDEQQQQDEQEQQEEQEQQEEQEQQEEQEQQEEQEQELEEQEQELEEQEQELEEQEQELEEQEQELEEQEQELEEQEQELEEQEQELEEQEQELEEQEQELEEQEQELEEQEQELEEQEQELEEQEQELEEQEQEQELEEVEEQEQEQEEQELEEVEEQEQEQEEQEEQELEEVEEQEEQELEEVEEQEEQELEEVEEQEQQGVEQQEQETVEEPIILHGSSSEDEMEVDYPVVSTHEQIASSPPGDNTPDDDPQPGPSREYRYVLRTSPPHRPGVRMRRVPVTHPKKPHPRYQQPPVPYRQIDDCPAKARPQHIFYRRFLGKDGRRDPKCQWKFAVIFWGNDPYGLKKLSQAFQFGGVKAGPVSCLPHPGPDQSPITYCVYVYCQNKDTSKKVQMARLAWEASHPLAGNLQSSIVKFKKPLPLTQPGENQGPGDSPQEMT

This assay concerns the target Protein LANA1 (Human herpesvirus 8 type P (isolate GK18)) (UniProt Q9QR71). The experiment in a line: LANA–H2A/H2B histone binding inhibitors, dose response, biochemical, fluorescence polarization, cell-free, retest (AID 435023). Conditions: LANA peptide-nucleosome binding. In general terms: Polarisation of emitted light reports the rotation of a fluorescent probe.
Consider `O=C1CCCC(O)=C1C=Nc1ccc(O)cc1`, for which the EC50 (commonly the concentration giving half of the maximal effect) was > 7.5 µM (inactive).

On to `CC(C)n1c(O)c(/C=C2\C=NN=C2c2ccccc2)sc1=S`, for which the EC50 is > 7.5 µM (inactive).

With `CN(CCOc1ccc(CC2SC(=O)NC2=O)cc1)c1ccccn1` (configuration not stated), the EC50 was > 7.5 µM (inactive).

Consider `CCNc1nc(NCC)nc(N/N=C/c2ccc(N(C)C)cc2)n1`, for which the EC50 was > 7.5 µM (inactive).

Regarding `N#CC(C#N)=C/C(C#N)=C(/N)N1CCN(c2ccc(Cl)cc2)CC1`, the EC50 was > 7.5 µM (inactive).

As for `O=C(C1=C(O)C(=O)N(CCCN2CCOCC2)C1c1ccccn1)c1cc2ccccc2o1` (configuration not stated), the EC50 was > 7.5 µM (inactive).

Turning to `COc1ccc(N/C=C/C(=O)c2cc(OC)c(OC)c(OC)c2)cc1`, the EC50 was > 7.5 µM (inactive).

For `CC1(C)CC(=O)C(C(C#Cc2ccccc2)C2=C(O)CC(C)(C)CC2=O)=C(O)C1`, the EC50 was > 7.5 µM (inactive).

As to `COc1ccc(N/C=C/C(=O)c2ccc(Cl)cc2)cc1`, the EC50 was > 7.5 µM (inactive).

With `Oc1c(N=NC(=S)Nc2ccccc2F)c2ccccc2n1Cc1ccc(Cl)cc1`, the EC50 is > 7.5 µM (inactive).

Consider `COc1cc(/C=N/O)c(Br)cc1OCC(=O)Nc1ccccc1C`, for which the EC50 is > 7.5 µM (inactive).

In the case of `COc1cccc(CNC(=O)c2ccc(NC(=O)CC3SC(N4CCCC4)=NC3=O)cc2)c1` (configuration not stated), the EC50 is > 7.5 µM (inactive).

Turning to `O=C(CC1SC(N2CCOCC2)=NC1=O)Nc1ccc(Cl)c(C(F)(F)F)c1` (configuration not stated), the EC50 was > 7.5 µM (inactive).

With `CCC/C=N/O`, the EC50 is > 7.5 µM (inactive).

Regarding `Oc1ccc2nnc3c(Br)cnn3c2c1`, the EC50 was > 7.5 µM (inactive).

As to `CC1Cc2cc(/C(O)=C3\C(=O)C(=O)N(Cc4cccnc4)C3c3ccccc3F)ccc2O1` (configuration not stated), the EC50 is > 7.5 µM (inactive).

Turning to `Brc1ccc(C2=CC(c3ccco3)n3ncnc3N2)cc1` (configuration not stated), the EC50 was > 7.5 µM (inactive).

Take `CC1C2CC(C(CN(C)C)/C2=N/O)C1(C)C` (configuration not stated): the EC50 is > 7.5 µM (inactive).

Regarding `C/C(=N/NC(=O)c1ccncc1)c1cc2ccc(O)cc2oc1=O`, the EC50 was > 7.5 µM (inactive).

`COc1ccc(C2C(C(=O)c3cccs3)=C(O)C(=O)N2c2nncs2)cc1` (configuration not stated): the EC50 is > 7.5 µM (inactive).

In the case of `Cc1ccc2oc(=O)c(/C=C(\O)c3ccco3)nc2c1`, the EC50 was > 7.5 µM (inactive).

For `NC(=O)Cn1c(O)c(N=NC(=O)CNC(=O)/C=C/c2ccccc2)c2ccccc21`, the EC50 was > 7.5 µM (inactive).

For the molecule `O=C(CC1SC(N2CCCCC2)=NC1=O)Nc1cccc(C(=O)O)c1` (configuration not stated), the EC50 was > 7.5 µM (inactive).

With `O=C(C1=C(O)C(=O)N(Cc2ccccc2)C1c1cccnc1)c1ccco1` (configuration not stated), the EC50 was > 7.5 µM (inactive).

As for `COC(=O)CC1=C(C(=O)OC)C(c2cc(OC)c(OC)cc2OC)C(C#N)=C(N)O1` (configuration not stated), the EC50 is > 7.5 µM (inactive).

`CNC(=O)c1ccc(NC(=O)CC2SC(N3CCCC3)=NC2=O)cc1` (configuration not stated): the EC50 is > 7.5 µM (inactive).

On to `COc1ccc(CC2C(=O)N(c3ccccc3)C(=O)N(c3ccccc3)C2=O)c(OC)c1`, for which the EC50 was > 7.5 µM (inactive).

As to `O=C(O)CC1S/C(=N/N=C/c2ccccn2)NC1=O` (configuration not stated), the EC50 is > 7.5 µM (inactive).

With `C/C(=N\Nc1nncc2ccccc12)c1ccc(O)cc1`, the EC50 is > 7.5 µM (inactive).

For `C/C(=N\N=C1/NC(=O)C(C)S1)c1ccc([N+](=O)[O-])cc1` (configuration not stated), the EC50 is > 7.5 µM (inactive).

Consider `Cn1[nH]c(-c2ccccc2)c(/C=N/O)c1=O`, for which the EC50 is > 7.5 µM (inactive).

`COC(=O)c1ccccc1NC1CC(=O)N(c2c(C)cccc2C)C1=O` (configuration not stated): the EC50 is > 7.5 µM (inactive).

In the case of `COc1ccc(NC2=C(Cl)C(=O)N(c3ccccc3)C2=O)c(OC)c1`, the EC50 was > 7.5 µM (inactive).

Turning to `O=[N+]([O-])c1cccc(/C=N/Nc2nccnc2Cl)c1`, the EC50 was > 7.5 µM (inactive).

Regarding `CC(=O)c1cccc(OC(=O)C2=CC=CN3CCS(=O)(=O)N=C23)c1`, the EC50 is > 7.5 µM (inactive).

`COc1ccc(CCn2c(O)c(C=Nc3ccc(F)cc3)c(=O)[nH]c2=O)cc1OC`: the EC50 was > 7.5 µM (inactive).

Consider `CCOc1ccc(N2C(=O)C3ON(c4ccccc4)C(c4ccco4)C3C2=O)cc1` (configuration not stated), for which the EC50 was > 7.5 µM (inactive).

Turning to `CC1=NCCc2c1[nH]c1cc(O)ccc21`, the EC50 is 2.37 µM.

For the molecule `COc1ccccc1C1C(C(=O)c2sc(C)nc2C)=C(O)C(=O)N1CCN1CCOCC1` (configuration not stated), the EC50 was > 7.5 µM (inactive).

`Cc1cc(C)nc(SC2CC(=O)N(c3ccc(C)c(C)c3)C2=O)n1` (configuration not stated): the EC50 was > 7.5 µM (inactive).

Take `CCOC(=O)C1=C(CSc2nc(-c3ccccc3)ccc2C#N)OC(N)=C(C#N)C1c1ccccc1` (configuration not stated): the EC50 was > 7.5 µM (inactive).

For the molecule `CCOc1cccc(C2C(C(=O)c3ccc(C)o3)=C(O)C(=O)N2c2nccs2)c1` (configuration not stated), the EC50 is > 7.5 µM (inactive).

In the case of `C/C(=N\Nc1ccc(Cl)c(C(=O)O)c1)c1ccc(N2CCOCC2)cc1`, the EC50 is > 7.5 µM (inactive).

For the molecule `COc1ccccc1N1C(=O)[C@@H]2C(C(=O)CN3C(=O)c4ccccc4C3=O)=NN[C@@H]2C1=O`, the EC50 is > 7.5 µM (inactive).

Turning to `O=C(/C=C/Nc1ccccc1)c1ccc(Cl)cc1Cl`, the EC50 is > 7.5 µM (inactive).

As to `CCc1nnc(NS(=O)(=O)c2ccc(N=CC3=C(O)CC(C)(C)CC3=O)cc2)s1`, the EC50 was > 7.5 µM (inactive).

For `O=C1CC(c2ccc(F)cc2)CC(O)=C1C=NCCN1CCNCC1` (configuration not stated), the EC50 is > 7.5 µM (inactive).

In the case of `Cc1nc2c(C)cccn2c1/C(O)=C1\C(=O)C(=O)N(CCN(C)C)C1c1ccccc1` (configuration not stated), the EC50 is > 7.5 µM (inactive).

In the case of `CCCCc1ccc(N=N/C(C(=O)Nc2ccc(NC(C)=O)cc2OC)=C(/C)O)cc1`, the EC50 was > 7.5 µM (inactive).

Turning to `Cc1ccc(NC2=C([N+](=O)[O-])CS(=O)(=O)C2)cc1`, the EC50 is > 7.5 µM (inactive).

On to `CCN(CC)CCN1C(=O)C(O)=C(C(=O)c2ccc(C)o2)C1c1ccccn1` (configuration not stated), for which the EC50 is > 7.5 µM (inactive).

As for `CC1OC(OCC2OC(Oc3c(-c4ccc(O)cc4)oc4cc(O)cc(O)c4c3=O)C(O)C(O)C2O)C(O)C(O)C1O` (configuration not stated), the EC50 was > 7.5 µM (inactive).

For the molecule `CN1CC=C2C(C#N)=C(N)C(C#N)(C#N)[C@H](c3ccoc3)[C@H]2C1`, the EC50 was > 7.5 µM (inactive).

On to `COc1ccccc1N1CCN(C2CC(=O)N(c3cccc(Cl)c3)C2=O)CC1` (configuration not stated), for which the EC50 was > 7.5 µM (inactive).

With `Cc1ccc(/C(O)=C/c2nc3cc(C)ccc3oc2=O)cc1`, the half-maximal effective concentration (EC50) is 5.84 µM.

As to `Cc1ccc(N2C(=O)[C@@H]3C(C(=O)CN4C(=O)c5ccccc5C4=O)=NN[C@@H]3C2=O)c(C)c1`, the EC50 was > 7.5 µM (inactive).

`CC(=O)C1=C(O)C(=O)N(c2ccc(C(=O)O)cc2)C1c1ccc([N+](=O)[O-])cc1` (configuration not stated): the EC50 was > 7.5 µM (inactive).

In the case of `N#Cc1ccccc1/C=N/Nc1nc(-c2ccccc2)c2cc(Cl)ccc2n1`, the EC50 is > 7.5 µM (inactive).

On to `C=CCOc1ccc(/C(O)=C2/C(=O)C(=O)N(CCCN3CCOCC3)C2c2ccc(OC)cc2)cc1` (configuration not stated), for which the EC50 is > 7.5 µM (inactive).

On to `CCOc1cc(C2C3=C(CCCC3=O)Nc3nc(C(=O)OC)nn32)ccc1OC` (configuration not stated), for which the EC50 is > 7.5 µM (inactive).

For `COc1ccc(C2C(C(=O)c3ccco3)=C(O)C(=O)N2CC2CCCO2)cc1OC` (configuration not stated), the EC50 is > 7.5 µM (inactive).

For `CCn1c(O)c(/C=C2\C=NN=C2c2ccccc2)sc1=S`, the EC50 is > 7.5 µM (inactive).

With `Cc1cccc(CC2CC(=O)N(c3ccc(C)cc3Br)C2=O)c1` (configuration not stated), the EC50 was > 7.5 µM (inactive).

As to `COc1ccc(C(=O)/C=C/Nc2ccc(S(=O)(=O)Nc3cc(OC)nc(OC)n3)cc2)c(OC)c1`, the EC50 is > 7.5 µM (inactive).

In the case of `O=C(O)C(C/C(=N/O)c1ccc(Br)cc1)P(=O)(c1ccccc1)c1ccccc1` (configuration not stated), the EC50 was > 7.5 µM (inactive).

Regarding `CC[C@H]1c2[nH]c3ccccc3c2C[C@H]2C(=O)N(c3ccc(F)cc3)C(=O)N21`, the EC50 was > 7.5 µM (inactive).

Take `COc1ccc(C2=CC(c3cc(OC)c(OC)c(OC)c3)NC(=S)N2)cc1` (configuration not stated): the EC50 was > 7.5 µM (inactive).

In the case of `COc1cc([N+](=O)[O-])ccc1N1C(=O)CC(Sc2nccc(C)n2)C1=O` (configuration not stated), the EC50 was > 7.5 µM (inactive).

Take `CCN(CC)CCCN1C(=O)C(=O)/C(=C(/O)c2ccccc2)C1c1cc(OC)ccc1OC` (configuration not stated): the EC50 was > 7.5 µM (inactive).

Regarding `O=c1c(/C=C(\O)c2ccc(F)cc2)nc2ccccc2n1-c1ccccc1`, the EC50 is > 7.5 µM (inactive).

Take `CC1(C)C(c2cccs2)=[N+]([O-])C2(CCCCC/C2=N\O)N1O` (configuration not stated): the EC50 was > 7.5 µM (inactive).

For the molecule `CC1(C)C(C#N)=C(N)OC2=C1C(=O)CCC2`, the EC50 was > 7.5 µM (inactive).
